Measurements as given in patent publication US20250296959A1, “B7-H3 TARGETING PEPTIDES AND CONSTRUCTS THEREOF” (Mariana Oncology Inc., priority 2024, published 2025).
pKd: −log10 of the molar value. Positions of bridges follow the written chain, without caps; N, C: chain ends. Non-standard residues stand in square brackets, D forms with d. Residues, ends and D or L forms follow the SMILES beside them. *: point of attachment. DOTA = O=C(O)CN1CCN(CC(=O)O)CCN(CC(=O)*)CCN(CC(=O)O)CC1; PEG8 = NCCOCCOCCOCCOCCOCCOCCOCCOCCC(=O)O; Aad = N[C@@H](CCCC(=O)O)C(=O)O; Nle = CCCC[C@H](N)C(=O)O; Abu = CC[C@H](N)C(=O)O

Target: T1, human 4lg B7-H3 (Homo sapiens, UniProt Q5ZPR3)
T1 sequence (Q5ZPR3 29-534): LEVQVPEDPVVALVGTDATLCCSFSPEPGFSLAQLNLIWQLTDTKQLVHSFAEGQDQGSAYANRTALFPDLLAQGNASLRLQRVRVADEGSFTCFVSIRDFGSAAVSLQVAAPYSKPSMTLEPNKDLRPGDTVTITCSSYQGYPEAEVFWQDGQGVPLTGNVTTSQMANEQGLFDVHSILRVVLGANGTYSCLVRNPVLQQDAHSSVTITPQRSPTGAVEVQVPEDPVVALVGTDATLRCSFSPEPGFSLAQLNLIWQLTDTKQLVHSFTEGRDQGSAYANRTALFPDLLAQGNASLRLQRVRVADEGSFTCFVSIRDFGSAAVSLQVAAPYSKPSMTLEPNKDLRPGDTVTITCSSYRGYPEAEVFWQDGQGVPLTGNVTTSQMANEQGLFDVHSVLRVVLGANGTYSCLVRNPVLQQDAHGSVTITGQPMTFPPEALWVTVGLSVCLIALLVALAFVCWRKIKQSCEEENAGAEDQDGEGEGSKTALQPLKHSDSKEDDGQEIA
Test: Affinity determination by surface plasmon resonance (SPR) to 4Ig B7-H3
Conditions: SPR KD—25° C., 4Ig B7-H3; 25° C. flow cell temperature

Compound | pKd
CCCC[C@H](NC(C)=O)C(=O)N[C@@H](Cc1ccc(O)cc1)C(=O)N[C@H]1CSSC[C@@H](C(=O)N[C@@H](Cc2c[nH]c3ccccc23)C(=O)N[C@@H](Cc2ccccc2)C(=O)N[C@@H](CO)C(=O)N[C@H](CCCCNC(=O)CN2CCN(CC(=O)O)CCN(CC(=O)O)CCN(CC(=O)O)CC2)C(N)=O)NC(=O)[C@H](Cc2ccc(O)cc2)NC(=O)[C@H](C(C)C)NC(=O)[C@H](CC(=O)O)NC(=O)[C@H](Cc2ccc(O)cc2)NC(=O)[C@H](CCCCN)NC(=O)CNC(=O)[C@H](C(C)C)NC1=O [compound 92, Ac-Nle-Y-C-V-G-K-Y-D-V-Y-C-W-F-Ser-dLys(DOTA)-CONH2] (Ac-[Nle]YCVGKYDVYCWFS[dK](DOTA)-NH2; disulfide 3-11) | 8.00 to 9.00
CCCC[C@H](NC(=O)CCOCCOCCOCCOCCOCCOCCOCCOCCNC(=O)CN1CCN(CC(=O)O)CCN(CC(=O)O)CCN(CC(=O)O)CC1)C(=O)N[C@@H](Cc1ccc(O)cc1)C(=O)N[C@H]1CSSC[C@@H](C(=O)N[C@@H](Cc2c[nH]c3ccccc23)C(=O)N[C@@H](Cc2ccccc2)C(=O)N[C@H](C(N)=O)[C@@H](C)O)NC(=O)[C@H](Cc2ccc(O)cc2)NC(=O)[C@H](C(C)C)NC(=O)[C@H](CC(=O)O)NC(=O)[C@H](Cc2ccc(O)cc2)NC(=O)[C@H](CCCCN)NC(=O)CNC(=O)[C@H](C(C)C)NC1=O [compound 94, DOTA-PEG8-Nle-Y-C-V-G-K-Y-D-V-Y-C-W-F-Thr-CONH2] ({DOTA-PEG8}-[Nle]YCVGKYDVYCWFT-NH2; disulfide 3-11) | 7.00 to 8.00
CCCC[C@H](NC(C)=O)C(=O)N[C@@H](Cc1ccc(O)cc1)C(=O)N[C@H]1CSSC[C@@H](C(=O)N[C@@H](Cc2c[nH]c3ccccc23)C(=O)N[C@@H](Cc2ccccc2)C(=O)N[C@H](C(=O)N[C@H](CCCCNC(=O)CN2CCN(CC(=O)O)CCN(CC(=O)O)CCN(CC(=O)O)CC2)C(N)=O)[C@@H](C)O)NC(=O)[C@H](Cc2ccc(O)cc2)NC(=O)[C@H](CC)NC(=O)[C@H](CC(=O)O)NC(=O)[C@H](Cc2ccc(O)cc2)NC(=O)[C@H](CCCCN)NC(=O)CNC(=O)[C@H](C(C)C)NC1=O [compound 96, Ac-Nle-Y-C-V-G-K-Y-D-Abu-Y-C-W-F-Thr-dLys(DOTA)-CONH2] (Ac-[Nle]YCVGKYD[Abu]YCWFT[dK](DOTA)-NH2; disulfide 3-11) | 7.00 to 8.00
CCCC[C@H](NC(C)=O)C(=O)N[C@@H](Cc1ccc(O)cc1)C(=O)N[C@H]1CSSC[C@@H](C(=O)N[C@@H](Cc2c[nH]c3ccccc23)C(=O)N[C@@H](Cc2ccccc2)C(=O)N[C@H](C(=O)N[C@H](CCCCNC(=O)CN2CCN(CC(=O)O)CCN(CC(=O)O)CCN(CC(=O)O)CC2)C(=O)O)[C@@H](C)O)NC(=O)[C@H](Cc2ccc(O)cc2)NC(=O)[C@H](C(C)C)NC(=O)[C@H](CCCC(=O)O)NC(=O)[C@H](Cc2ccc(O)cc2)NC(=O)[C@H](CCCCN)NC(=O)CNC(=O)[C@H](C(C)C)NC1=O [compound 102, Ac-Nle-Y-C-V-G-K-Y-HomoGlu-V-Y-C-W-F-Thr-dLys(DOTA)-COOH] (Ac-[Nle]YCVGKY[Aad]VYCWFT[dK](DOTA)-OH; disulfide 3-11) | 6.52 to 7.00
CCCC[C@H](NC(C)=O)C(=O)N[C@@H](Cc1ccc(O)cc1)C(=O)N[C@H]1CSSC[C@@H](C(=O)N[C@@H](Cc2c[nH]c3ccccc23)C(=O)N[C@@H](Cc2ccccc2)C(=O)N[C@H](C(=O)N[C@H](CCCCNC(=O)CN2CCN(CC(=O)O)CCN(CC(=O)O)CCN(CC(=O)O)CC2)C(=O)O)[C@@H](C)O)NC(=O)[C@H](Cc2ccc(O)cc2)NC(=O)[C@H](C(C)C)NC(=O)[C@H](CC(=O)O)NC(=O)[C@H](Cc2ccc(O)cc2)NC(=O)[C@H](CCCC(=O)O)NC(=O)CNC(=O)[C@H](C(C)C)NC1=O [compound 103, Ac-Nle-Y-C-V-G-HomoGlu-Y-D-V-Y-C-W-F-Thr-dLys(DOTA)-COOH] (Ac-[Nle]YCVG[Aad]YDVYCWFT[dK](DOTA)-OH; disulfide 3-11) | 7.00 to 8.00
